Results: article PMC6934184, “Selective DNA-PKcs inhibition extends the therapeutic index of localized radiotherapy and chemotherapy” (The Journal of Clinical Investigation, 2019)

Target: T1, MAP2K3 (MEK3) (Homo sapiens, UniProt P46734)
T1 construct: purchased Thermo Fisher Scientific (Life Technologies) SelectScreen
Experiment: SelectScreen LanthaScreen
Type: binding
Settings: read-out: % displacement
Method in brief: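 NU5455 was profiled across the SelectScreen Broad panel of kinase activity and binding assays. Z'LYTE reactions such as CSF1R ran at apparent Km ATP, while the Adapta CAMK1 assay used ATP listed as 10. Values are given as percent.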

T1 sequence (P46734 whole entry): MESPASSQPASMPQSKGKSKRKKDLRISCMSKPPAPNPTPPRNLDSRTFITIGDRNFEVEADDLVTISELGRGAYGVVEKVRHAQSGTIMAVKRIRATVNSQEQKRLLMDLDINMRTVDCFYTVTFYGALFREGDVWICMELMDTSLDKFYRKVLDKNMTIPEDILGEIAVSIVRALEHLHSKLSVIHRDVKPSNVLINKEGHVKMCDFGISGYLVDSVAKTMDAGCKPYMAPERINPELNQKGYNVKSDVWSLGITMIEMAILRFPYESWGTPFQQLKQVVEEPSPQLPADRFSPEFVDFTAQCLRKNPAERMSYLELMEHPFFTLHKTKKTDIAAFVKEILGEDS

## CN(C(=O)CN1CCOCC1)c1ccc2sc3c(-c4cccc5c(=O)cc(N6CC7CCC(C6)O7)oc45)cccc3c2c1 [NU5455]
  inhibition at 1 µM: 1.6%
